Measured values reported in PubChem BioAssay (NCI).
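The compound was tested at five concentrations on cells cultured in 96-well plates, with a 48-hour exposure period. TGI: total growth inhibition.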

Experiments:
Test in all cases: growth of human tumour cells (NCI), 48 h
SK-MEL-28 melanoma = system: SK-MEL-28 melanoma
M14 melanoma = system: M14 melanoma
HT29 colon = system: HT29 colon
CCRF-CEM leukemia = system: CCRF-CEM leukemia
A498 renal = system: A498 renal
HOP-62 NSCLC = system: HOP-62 NSCLC
NCI-H522 lung = system: NCI-H522 lung
EKVX NSCLC = system: EKVX NSCLC
HCC-2998 colon = system: HCC-2998 colon
SN12C renal = system: SN12C renal
SNB-19 CNS = system: SNB-19 CNS
SK-OV-3 ovarian = system: SK-OV-3 ovarian
SK-MEL-2 melanoma = system: SK-MEL-2 melanoma
XF 498 CNS = system: XF 498 CNS
RXF-631 renal = system: RXF-631 renal
KM20L2 colon = system: KM20L2 colon
RPMI-8226 leukemia = system: RPMI-8226 leukemia
UACC-62 melanoma = system: UACC-62 melanoma
DLD-1 colon = system: DLD-1 colon
DMS 273 small cell lung = system: DMS 273 small cell lung
SK-MEL-5 melanoma = system: SK-MEL-5 melanoma
786-0 renal = system: 786-0 renal
CAKI-1 renal = system: CAKI-1 renal
HL-60(TB) leukemia = system: HL-60(TB) leukemia
UO-31 renal = system: UO-31 renal
SF-295 CNS = system: SF-295 CNS
TK-10 renal = system: TK-10 renal
OVCAR-4 ovarian = system: OVCAR-4 ovarian
UACC-257 melanoma = system: UACC-257 melanoma
SW-620 colon = system: SW-620 colon
OVCAR-3 ovarian = system: OVCAR-3 ovarian
KM12 colon = system: KM12 colon
SF-539 CNS = system: SF-539 CNS
U251 CNS = system: U251 CNS
MALME-3M melanoma = system: MALME-3M melanoma
M19-MEL melanoma = system: M19-MEL melanoma
SF-268 CNS = system: SF-268 CNS
NCI-H23 lung = system: NCI-H23 lung
MOLT-4 leukemia = system: MOLT-4 leukemia
OVCAR-5 ovarian = system: OVCAR-5 ovarian
DMS 114 small cell lung = system: DMS 114 small cell lung
HCT-116 colon = system: HCT-116 colon
HCT-15 colon = system: HCT-15 colon
IGROV1 ovarian = system: IGROV1 ovarian
SNB-75 CNS = system: SNB-75 CNS
OVCAR-8 ovarian = system: OVCAR-8 ovarian
A549 NSCLC = system: A549 NSCLC
LXFL 529 NSCLC = system: LXFL 529 NSCLC
SNB-78 CNS = system: SNB-78 CNS
K-562 leukemia = system: K-562 leukemia
LOX IMVI melanoma = system: LOX IMVI melanoma
COLO 205 colon = system: COLO 205 colon
SR leukemia = system: SR leukemia
HOP-18 NSCLC = system: HOP-18 NSCLC
HOP-92 NSCLC = system: HOP-92 NSCLC
ACHN renal = system: ACHN renal
NCI-H226 lung = system: NCI-H226 lung
NCI-H460 lung = system: NCI-H460 lung
RXF 393 renal = system: RXF 393 renal

CCOC(=O)c1ccc(N=Cc2ccc(N(CCC#N)S(=O)(=O)c3ccccc3)cc2C)cc1
TGI (SK-MEL-28 melanoma): > 100 µM | TGI (M14 melanoma): > 100 µM | TGI (HT29 colon): > 100 µM | TGI (CCRF-CEM leukemia): > 100 µM | TGI (A498 renal): > 100 µM | TGI (HOP-62 NSCLC): > 100 µM | TGI (NCI-H522 lung): > 100 µM | TGI (EKVX NSCLC): > 100 µM | TGI (HCC-2998 colon): 58.1 µM | TGI (SN12C renal): > 100 µM | TGI (SNB-19 CNS): > 100 µM | TGI (SK-OV-3 ovarian): > 100 µM | TGI (SK-MEL-2 melanoma): > 100 µM | TGI (XF 498 CNS): > 100 µM | TGI (RXF-631 renal): > 100 µM | TGI (KM20L2 colon): > 100 µM | TGI (RPMI-8226 leukemia): > 100 µM | TGI (UACC-62 melanoma): > 100 µM | TGI (DLD-1 colon): > 100 µM | TGI (DMS 273 small cell lung): > 100 µM | TGI (SK-MEL-5 melanoma): > 100 µM | TGI (786-0 renal): > 100 µM | TGI (CAKI-1 renal): > 100 µM | TGI (HL-60(TB) leukemia): > 100 µM | TGI (UO-31 renal): > 100 µM | TGI (SF-295 CNS): > 100 µM | TGI (TK-10 renal): > 100 µM | TGI (OVCAR-4 ovarian): > 100 µM | TGI (UACC-257 melanoma): > 100 µM | TGI (SW-620 colon): > 100 µM | TGI (OVCAR-3 ovarian): > 100 µM | TGI (KM12 colon): > 100 µM | TGI (SF-539 CNS): > 100 µM | TGI (U251 CNS): > 100 µM | TGI (MALME-3M melanoma): > 100 µM | TGI (M19-MEL melanoma): > 100 µM | TGI (SF-268 CNS): > 100 µM | TGI (NCI-H23 lung): > 100 µM | TGI (MOLT-4 leukemia): > 100 µM | TGI (OVCAR-5 ovarian): > 100 µM | TGI (DMS 114 small cell lung): > 100 µM | TGI (HCT-116 colon): > 100 µM | TGI (HCT-15 colon): > 100 µM | TGI (IGROV1 ovarian): > 100 µM | TGI (SNB-75 CNS): > 100 µM | TGI (OVCAR-8 ovarian): > 100 µM | TGI (A549 NSCLC): > 100 µM | TGI (LXFL 529 NSCLC): > 100 µM | TGI (SNB-78 CNS): > 100 µM | TGI (K-562 leukemia): > 100 µM | TGI (LOX IMVI melanoma): > 100 µM | TGI (COLO 205 colon): 52.9 µM

Cc1cccc(NC(=O)c2c(N)[n+]([O-])c3ccccc3[n+]2[O-])c1
TGI (SK-MEL-28 melanoma): 20.7 µM | TGI (M14 melanoma): 24.9 µM | TGI (HT29 colon): 27.7 µM | TGI (CCRF-CEM leukemia): > 100 µM | TGI (A498 renal): 29.8 µM | TGI (HOP-62 NSCLC): 31.3 µM | TGI (NCI-H522 lung): 20 µM | TGI (EKVX NSCLC): 31.3 µM | TGI (SN12C renal): 17 µM | TGI (SR leukemia): > 100 µM | TGI (SNB-19 CNS): 29.3 µM | TGI (SK-OV-3 ovarian): 63 µM | TGI (SK-MEL-2 melanoma): 23.3 µM | TGI (HOP-18 NSCLC): 32.2 µM | TGI (XF 498 CNS): 24.5 µM | TGI (RXF-631 renal): 3.24 µM | TGI (HOP-92 NSCLC): 29.5 µM | TGI (KM20L2 colon): 30.5 µM | TGI (DLD-1 colon): 26 µM | TGI (DMS 273 small cell lung): 22.1 µM | TGI (ACHN renal): 29.9 µM | TGI (NCI-H226 lung): 27 µM | TGI (SK-MEL-5 melanoma): 17 µM | TGI (786-0 renal): 17.9 µM | TGI (CAKI-1 renal): 27.4 µM | TGI (HL-60(TB) leukemia): 56.7 µM | TGI (UO-31 renal): 32.6 µM | TGI (SF-295 CNS): 23.3 µM | TGI (OVCAR-4 ovarian): 23.3 µM | TGI (UACC-257 melanoma): 24.4 µM | TGI (SW-620 colon): 21.4 µM | TGI (OVCAR-3 ovarian): 29.1 µM | TGI (KM12 colon): 30.3 µM | TGI (SF-539 CNS): 16.4 µM | TGI (U251 CNS): 3.65 µM | TGI (MALME-3M melanoma): 27.1 µM | TGI (NCI-H460 lung): 28.1 µM | TGI (M19-MEL melanoma): 23.8 µM | TGI (SF-268 CNS): 22.8 µM | TGI (NCI-H23 lung): 23.4 µM | TGI (MOLT-4 leukemia): 81 µM | TGI (OVCAR-5 ovarian): 42.3 µM | TGI (HCT-116 colon): 20.3 µM | TGI (IGROV1 ovarian): 21.5 µM | TGI (SNB-75 CNS): 30.2 µM | TGI (OVCAR-8 ovarian): 32.3 µM | TGI (A549 NSCLC): 34.6 µM | TGI (LXFL 529 NSCLC): 22.9 µM | TGI (SNB-78 CNS): 35.4 µM | TGI (K-562 leukemia): > 100 µM | TGI (COLO 205 colon): 27.2 µM | TGI (RXF 393 renal): 13.3 µM
